Data published in PubChem BioAssay (NCI).
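Step 1: Grow cells in 96-well plates. Step 2: Expose to compound for 48 hours at 5 concentrations. Step 3: Interpolate endpoints linearly; if unreached, use highest concentration. At the TGI there is no net growth.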

Key:
Assay in all cases: NCI tumour cell line growth inhibition, 48 h
TK-10 renal = test system: TK-10 renal
DLD-1 colon = test system: DLD-1 colon
OVCAR-3 ovarian = test system: OVCAR-3 ovarian
COLO 205 colon = test system: COLO 205 colon
DMS 114 small cell lung = test system: DMS 114 small cell lung
LXFL 529 NSCLC = test system: LXFL 529 NSCLC
M19-MEL melanoma = test system: M19-MEL melanoma
KM20L2 colon = test system: KM20L2 colon
IGROV1 ovarian = test system: IGROV1 ovarian
NCI-H226 lung = test system: NCI-H226 lung
XF 498 CNS = test system: XF 498 CNS
RXF-631 renal = test system: RXF-631 renal
SNB-78 CNS = test system: SNB-78 CNS
HOP-18 NSCLC = test system: HOP-18 NSCLC
DMS 273 small cell lung = test system: DMS 273 small cell lung

Structure (SMILES)	TGI (TK-10 renal) [µM]	TGI (DLD-1 colon) [µM]	TGI (OVCAR-3 ovarian) [µM]	TGI (COLO 205 colon) [µM]	TGI (DMS 114 small cell lung) [µM]	TGI (LXFL 529 NSCLC) [µM]	TGI (M19-MEL melanoma) [µM]	TGI (KM20L2 colon) [µM]	TGI (IGROV1 ovarian) [µM]	TGI (NCI-H226 lung) [µM]	TGI (XF 498 CNS) [µM]	TGI (RXF-631 renal) [µM]	TGI (SNB-78 CNS) [µM]	TGI (HOP-18 NSCLC) [µM]	TGI (DMS 273 small cell lung) [µM]
Cc1ccc(C(=O)C(C)N)cc1C (stereo unspecified)	> 100	> 100	> 100	> 100	> 100	> 100	> 100	> 100	> 100	> 100	> 100	> 100	–	–	–
CCOC(=O)C(C(=O)OCC)C(NC(=O)Nc1cc(C(F)(F)F)ccc1OC)(C(F)(F)F)C(F)(F)F	> 100	–	54.3	32.3	–	–	–	–	96.9	72.4	–	–	–	–	–
COC1=CC(=O)C2C(C1=O)[C@@H]1c3ccccc3OC[C@H]21 (stereo partly specified)	> 100	> 100	> 100	> 100	> 100	> 100	–	> 100	–	> 100	–	–	> 100	> 100	> 100
Fc1ccc(C(OCCN2CCC3CCC(C2)N3C/C=C/c2cccnc2)c2ccc(F)cc2)cc1 (stereo unspecified)	24	–	29.5	2.68	–	–	–	–	27.1	30.3	–	–	–	–	–
CC1(C)N=C(N)N=C(N)N1CCCCc1ccccc1	> 100	–	> 36.8	> 51.6	–	–	–	–	> 100	> 83	–	–	–	–	–
C#CC1(O)CC(c2ccccc2)N(C)C(c2ccccc2)C1 (stereo unspecified)	> 100	–	> 100	> 100	> 100	> 100	> 100	> 100	> 100	> 100	–	> 100	> 100	–	> 100
COC(=O)/C=C/N1CC1	> 10	–	> 10	9.07	–	–	–	–	6.15	> 10	–	–	–	–	–
CCCC(=O)Oc1cc(OC(=O)CCC)c2c(C)cc(=O)oc2c1	> 100	–	> 100	> 100	–	–	–	–	> 100	> 100	–	–	–	–	–
COc1ccc(/C=C2\CC3C4CC=C5C[C@@H](O)CC[C@]5(C)C4CC[C@]3(C)C2=O)cc1OC (stereo partly specified)	> 100	–	51.9	47	–	–	–	–	> 100	> 100	–	–	–	–	–
CC(C)(C)OC(=O)CC(NC(=O)OC(C)(C)C)C(=O)Oc1ccc([N+](=O)[O-])cc1 (stereo unspecified)	> 100	–	> 100	> 100	–	–	–	–	> 100	> 100	–	–	–	–	–
COc1cc2c3c4c1OCc1c5c(cc(c1-4)CC3[N+](C)(C)CC2)OCO5 (stereo unspecified)	> 100	–	> 100	> 100	–	–	–	–	> 100	> 100	–	–	–	–	–
COc1ccc(NC(C)=O)cc1N1C(=O)/C(=C\c2cccc(Oc3ccccc3)c2)SC1c1ccccc1 (stereo unspecified)	> 100	–	71.3	39.9	–	–	–	–	> 100	> 100	–	–	–	–	–
O=C1Cc2c([nH]c3cc(Br)ccc23)-c2ccccc2N1	87.3	–	83.4	93.8	–	–	–	–	99.7	34.7	–	–	–	–	–
Cc1nc2c(s/c(=N\N)n2-c2ccccc2)c(=O)n1C	> 100	–	–	> 100	> 100	> 100	> 100	> 100	> 100	> 100	> 100	–	> 100	–	> 100
CN1C(=O)C(O)C[C@@H]1c1ccc(F)cc1 (stereo partly specified)	> 100	–	> 100	> 100	–	–	–	–	> 100	> 100	–	–	–	–	–
N#Cc1c(Nc2ccccc2)[n+]([O-])c2ccc(Cl)cc2[n+]1[O-]	49.2	–	9.76	8.03	–	–	–	–	5.96	> 45.2	–	–	–	–	–
CC(=O)NC1=CC(=O)C=C(Cl)C1=O	> 100	–	> 100	> 100	–	–	–	–	> 100	> 100	–	–	–	–	–
C/C(CC(O)(C(F)(F)F)C(F)(F)F)=N/Nc1ccc([N+](=O)[O-])cc1[N+](=O)[O-]	> 10	–	8.33	3.85	–	–	–	–	> 10	6.66	–	–	–	–	–
COC(=O)c1c(OC(C)=O)ccc2c1c1cc3ccccc3c(OC(C)=O)c1n2C	92.5	–	62	69.8	–	–	–	–	12.8	> 100	–	–	–	–	–
OCC1(CNc2cc(Cl)ncn2)CCC1	> 100	–	> 100	> 100	–	–	–	–	> 100	> 100	–	–	–	–	–
O=C(CC(C(=O)c1cccs1)c1ccccc1)c1ccccc1O (stereo unspecified)	> 74.5	–	> 100	> 100	–	–	–	–	> 57.3	> 100	–	–	–	–	–
COc1cc(C2S/C(=C/c3ccccc3)C(=O)N2c2ccccn2)cc(OC)c1OC (stereo unspecified)	> 100	–	44.4	> 78.8	–	–	–	–	29.9	> 96.4	–	–	–	–	–
COC(=O)c1ccccc1Nc1ccccc1C(=O)OC	> 100	–	> 100	> 100	–	–	–	–	> 100	71.6	–	–	–	–	–
CC1OC(n2cnc3c(N)nc(Cl)nc32)C(C)(O)C1O (stereo unspecified)	> 25	–	> 25	> 25	–	–	–	–	> 25	> 25	–	–	–	–	–
NC(N)=N/N=C/c1c(-c2ccc(Cl)cc2)nc2n1CCS2	29.4	–	22.1	14.3	–	–	–	–	27.5	41	–	–	–	–	–
